Experimental findings from patent publication US9315498B2, “Arlethynyl derivatives” (Hoffmann-La Roche Inc., priority 2010, dated 2016) are described below.

For the test, the target named is human mGlu5a receptor (Homo sapiens (Human), UniProt P41594). Description: Intracellular Ca2+ mobilization assay (mGlu5 PAM). In kind it is cell-based. The note with it: for EC50: HEK-293 cells stably transfected with human mGlu5a, L-glutamate added at EC20 after pre-incubation with test compound, read-out: EC50 (nM) mGlu5PAM; for Emax: maximal response in % of the maximal stimulatory effect obtained with saturating concentrations of L-glutamate, read-out: Eff. (%). Here is the method:
A monoclonal HEK-293 cell line stably transfected with a cDNA encoding for the human mGlu5a receptor was generated; for the work with mGlu5 Positive Allosteric Modulators (PAMs), a cell line with low receptor expression levels and low constitutive receptor activity was selected to allow the differentiation of agonistic versus PAM activity. Cells were cultured according to standard protocols (Freshney, 2000) in Dulbecco's Modified Eagle Medium with high glucose supplemented with 1 mM glutamine, 10% (vol/vol) heat-inactivated bovine calf serum, Penicillin/Streptomycin, 50 μg/ml hygromycin and 15 μg/ml blasticidin (all cell culture reagents and antibiotics from Invitrogen, Basel, Switzerland).
About 24 hrs before an experiment, 5×10^4 cells/well were seeded in poly-D-lysine coated, black/clear-bottomed 96-well plates. The cells were loaded with 2.5 μM Fluo-4AM in loading buffer (1×HBSS, 20 mM HEPES) for 1 hr at 37° C. and washed five times with loading buffer. The cells were transferred into a Functional Drug Screening System 7000 (Hamamatsu, Paris, France), and 11 half logarithmic serial dilutions of test compound at 37° C. were added and the cells were incubated for 10-30 min. with on-line recording of fluorescence. Following this pre-incubation step, the agonist L-glutamate was added to the cells at a concentration corresponding to EC20 (typically around 80 μM) with on-line recording of fluorescence; in order to account for day-to-day variations in the responsiveness of cells, the EC20 of glutamate was determined immediately ahead of each experiment by recording of a full dose-response curve of glutamate.
Responses were measured as peak increase in fluorescence minus basal (i.e. fluorescence without addition of L-glutamate), normalized to the maximal stimulatory effect obtained with saturating concentrations of L-glutamate. Graphs were plotted with the % maximal stimulatory using XLfit, a curve fitting program that iteratively plots the data using Levenburg Marquardt algorithm. The single site competition analysis equation used was y=A+((B−A)/(1+((x/C)D))), where y is the % maximal stimulatory effect, A is the minimum y, B is the maximum y, C is the EC50, x is the log10 of the concentration of the competing compound and D is the slope of the curve (the Hill Coefficient). From these curves the EC50 (concentration at which half maximal stimulation was achieved), the Hill coefficient as well as the maximal response in % of the maximal stimulatory effect obtained with saturating concentrations of L-glutamate were calculated.
A depression of the signal observed after addition of the EC20 concentration of L-glutamate was indicative of an inhibitory activity of the test compound.

Sequence of human mGlu5a receptor (P41594 other isoform, or with tags, fused parts or gaps): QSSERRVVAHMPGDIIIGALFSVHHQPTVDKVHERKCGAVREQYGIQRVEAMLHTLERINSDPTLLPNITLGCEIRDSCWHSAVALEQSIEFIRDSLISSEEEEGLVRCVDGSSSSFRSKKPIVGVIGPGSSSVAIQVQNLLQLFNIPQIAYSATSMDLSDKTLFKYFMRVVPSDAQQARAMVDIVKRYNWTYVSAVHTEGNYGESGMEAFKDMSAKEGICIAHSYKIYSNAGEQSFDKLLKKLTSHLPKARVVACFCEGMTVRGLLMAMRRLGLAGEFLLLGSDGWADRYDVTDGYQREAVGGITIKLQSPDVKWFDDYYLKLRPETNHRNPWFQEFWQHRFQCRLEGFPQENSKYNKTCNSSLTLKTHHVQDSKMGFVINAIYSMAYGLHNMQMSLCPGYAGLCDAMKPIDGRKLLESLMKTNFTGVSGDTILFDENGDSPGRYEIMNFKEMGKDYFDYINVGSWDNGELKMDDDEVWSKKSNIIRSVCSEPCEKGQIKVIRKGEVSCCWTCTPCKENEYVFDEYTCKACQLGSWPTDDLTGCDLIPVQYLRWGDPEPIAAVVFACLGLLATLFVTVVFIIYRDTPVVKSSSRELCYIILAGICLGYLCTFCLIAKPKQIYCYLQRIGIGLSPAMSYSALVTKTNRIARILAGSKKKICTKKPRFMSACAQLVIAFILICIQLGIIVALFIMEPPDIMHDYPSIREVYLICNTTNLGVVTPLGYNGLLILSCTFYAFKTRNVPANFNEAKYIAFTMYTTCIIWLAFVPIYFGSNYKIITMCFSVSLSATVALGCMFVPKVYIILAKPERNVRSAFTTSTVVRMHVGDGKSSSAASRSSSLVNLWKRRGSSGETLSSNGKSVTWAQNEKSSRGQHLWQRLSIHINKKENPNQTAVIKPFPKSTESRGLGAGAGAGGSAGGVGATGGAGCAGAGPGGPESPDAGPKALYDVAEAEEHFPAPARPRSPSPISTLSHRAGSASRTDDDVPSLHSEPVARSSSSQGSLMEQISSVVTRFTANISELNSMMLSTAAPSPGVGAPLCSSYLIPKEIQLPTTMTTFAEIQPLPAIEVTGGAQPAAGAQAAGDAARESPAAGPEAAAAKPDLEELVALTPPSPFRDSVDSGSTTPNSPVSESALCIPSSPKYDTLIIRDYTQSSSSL

On to `COCC1CN(c2ccc(C#Cc3ccccc3)cn2)C(=O)O1` (racemic) [Example 2, (5RS)-5-Methoxymethyl-3-(5-phenylethynyl-pyridin-2-yl)-oxazolidin-2-one], for which the EC50 is 47 nM and the Emax is 34%.

`CC(C)(C)C1CN(c2ccc(C#Cc3ccccc3)cn2)C(=O)O1` (racemic) [Example 8, (5RS)-5-tert-Butyl-3-(5-phenylethynyl-pyridin-2-yl)-oxazolidin-2-one]: the half-maximal effective concentration (EC50) is 17 nM and the Emax is 62%.

`CC1(C)CN(c2ccc(C#Cc3ccccc3)cn2)C(=O)C1O` (racemic) [Example 14, (3RS)-3-Hydroxy-4,4-dimethyl-1-(5-phenylethynyl-pyridin-2-yl)-pyrrolidin-2-one]: the EC50 was determined as 388 nM and the Emax is 114%.

With `CC(C)(C)C1(C)CN(c2ccc(C#Cc3ccccc3)cn2)C(=O)O1` (racemic) [Example 19, (5RS)-5-tert-Butyl-5-methyl-3-(5-phenylethynyl-pyridin-2-yl)-oxazolidin-2-one], the EC50 worked out at 27 nM and the Emax was determined as 85%.

`O=C1O[C@H]2CCC[C@H]2N1c1ccc(C#Cc2ccccc2)cn1` (racemic) [Example 22, (3aRS,6aSR)-3-(5-Phenylethynyl-pyridin-2-yl)-hexahydro-cyclopentaoxazol-2-one]: the EC50 stood at 14 nM and the Emax was determined as 74%.

For the molecule `O=C1O[C@H]2CCC[C@H]2N1c1ccc(C#Cc2cccnc2)cn1` (racemic) [Example 23, (3aRS,6aSR)-3-(5-Pyridin-3-ylethynyl-pyridin-2-yl)-hexahydro-cyclopentaoxazol-2-one], the EC50 came to 12 nM and the Emax worked out at 92%.

In the case of `O=C1O[C@H]2CCC[C@H]2N1c1ccc(C#Cc2cncc(F)c2)cn1` (racemic) [Example 24, (3aRS,6aSR)-3-[5-(5-Fluoro-pyridin-3-ylethynyl)-pyridin-2-yl]-hexahydro-cyclopentaoxazol-2-one], the concentration giving a half-maximal response (EC50) was determined as 35 nM and the Emax is 73%.

As for `CC1N(c2ccc(C#Cc3ccccc3)cn2)C(=O)OC1(C)C` (racemic) [Example 27, (RS)-4,5,5-Trimethyl-3-(5-phenylethynyl-pyridin-2-yl)-oxazolidin-2-one], the EC50 was 15 nM and the Emax is 61%.

Consider `CN1C(=O)N(c2ccc(C#Cc3ccccc3)cn2)CC1C1CCCC1` (racemic) [Example 45, (RS)-4-Cyclopentyl-3-methyl-1-(5-phenylethynyl-pyridin-2-yl)-imidazolidin-2-one], for which the EC50 is 57 nM and the Emax was determined as 97%.

For the molecule `O=C1[C@H]2CCC[C@H]2N1c1ccc(C#Cc2ccccc2)cn1` (racemic) [Example 46, (1RS,5SR)-6-(5-Phenylethynyl-pyridin-2-yl)-6-aza-bicyclo[3.2.0]heptan-7-one], the half-maximal effective concentration (EC50) turned out to be 26 nM and the Emax turned out to be 27%.

Turning to `O=C1O[C@H]2CCCC[C@H]2N1c1ccc(C#Cc2ccccc2)cn1` (racemic) [Example 47, (6SR,7RS)-3-(5-Phenylethynyl-pyridin-2-yl)-hexahydro-benzooxazol-2-one], the 50% effective concentration (EC50) was determined as 36 nM and the Emax was found to be 109%.

In the case of `O=C1N(c2ccc(C#Cc3ccccc3)cn2)CC2CCCCN12` (racemic) [Example 58, (RS)-2-(5-Phenylethynyl-pyridin-2-yl)-hexahydro-imidazo[1,5-a]pyridin-3-one], the concentration for a half-maximal effect (EC50) is 33 nM and the Emax amounted to 43%.

In the case of `COC1C(=O)N(c2ccc(C#Cc3ccccc3)cn2)CC1(C)C` (racemic) [Example 60, (RS)-3-Methoxy-4,4-dimethyl-1-(5-phenylethynyl-pyridin-2-yl)-pyrrolidin-2-one], the EC50 was 35 nM and the Emax amounted to 89%.

Take `COC1C(=O)N(c2ccc(C#Cc3cncc(Cl)c3)cn2)CC1(C)C` (racemic) [Example 63, (RS)-1-[5-(5-Chloro-pyridin-3-ylethynyl)-pyridin-2-yl]-3-methoxy-4,4-dimethyl-pyrrolidin-2-one]: the EC50 is 70 nM and the Emax was found to be 99%.

`COC1C(=O)N(c2ccc(C#Cc3cccc(C)c3)cn2)CC1(C)C` (racemic) [Example 64, (RS)-3-Methoxy-4,4-dimethyl-1-(5-m-tolylethynyl-pyridin-2-yl)-pyrrolidin-2-one]: the EC50 stood at 87 nM and the Emax amounted to 56%.

In the case of `COC1C(=O)N(c2ccc(C#Cc3cccc(F)c3)cn2)CC1(C)C` (racemic) [Example 65, (RS)-1-[5-(3-Fluoro-phenylethynyl)-pyridin-2-yl]-3-methoxy-4,4-dimethyl-pyrrolidin-2-one], the EC50 turned out to be 43 nM and the Emax is 91%.

Consider `COC1C(=O)N(c2ccc(C#Cc3ccc(F)cc3)cn2)CC1(C)C` (racemic) [Example 66, (RS)-1-[5-(4-Fluoro-phenylethynyl)-pyridin-2-yl]-3-methoxy-4,4-dimethyl-pyrrolidin-2-one], for which the EC50 turned out to be 75 nM and the Emax came to 87%.

Consider `O=C1N(c2ccc(C#Cc3cccnc3)cn2)CC2CCCCN12` (racemic) [Example 70, (RS)-2-(5-Pyridin-3-ylethynyl-pyridin-2-yl)-hexahydro-imidazo[1,5-a]pyridin-3-one], for which the EC50 was determined as 74 nM and the Emax worked out at 51%.

As for `O=C1N(c2ccc(C#Cc3cccc(F)c3)cn2)CC2CCCCN12` (racemic) [Example 71, (RS)-2-[5-(3-Fluoro-phenylethynyl)-pyridin-2-yl]-hexahydro-imidazo[1,5-a]pyridin-3-one], the EC50 stood at 17 nM and the Emax was determined as 41%.

Take `CN1C(=O)N(c2ccc(C#Cc3ccccc3)cn2)CC1C1CC1` (racemic) [Example 83, (RS)-4-Cyclopropyl-3-methyl-1-(5-phenylethynyl-pyridin-2-yl)-imidazolidin-2-one]: the EC50 stood at 53 nM and the Emax is 86%.

`CC1(C)OC(=O)N(c2ccc(C#Cc3ccccc3)cn2)CC1O` (racemic) [Example 95, (RS)-5-Hydroxy-6,6-dimethyl-3-(5-phenylethynyl-pyridin-2-yl)-[1,3]oxazinan-2-one]: the EC50 stood at 47 nM and the Emax came to 118%.

For the molecule `O=C1[C@H]2CCC[C@H]2N1c1ccc(C#Cc2cccnc2)cn1` (racemic) [Example 98, (1RS,5SR)-6-(5-Pyridin-3-ylethynyl-pyridin-2-yl)-6-aza-bicyclo[3.2.0]heptan-7-one], the EC50 came out at 39 nM and the Emax was found to be 73%.

Turning to `O=C1O[C@H]2CCC[C@@H]2CN1c1ccc(C#Cc2ccccc2)cn1` (racemic) [Example 102, (4aRS,7aSR)-3-(5-Phenylethynyl-pyridin-2-yl)-hexahydro-cyclopenta[e][1,3]oxazin-2-one], the concentration for a half-maximal effect (EC50) came to 43 nM and the Emax turned out to be 115%.

Regarding `CC1CN(c2ccc(C#Cc3ccccc3)cn2)C(=O)OC1(C)C` (racemic) [Example 104, (RS)-5,6,6-Trimethyl-3-(5-phenylethynyl-pyridin-2-yl)-[1,3]oxazinan-2-one], the EC50 was 42 nM and the Emax worked out at 109%.

Consider `COCC1CCN(c2ccc(C#Cc3ccccc3)cn2)C(=O)O1` (racemic) [Example 105, (RS)-6-Methoxymethyl-3-(5-phenylethynyl-pyridin-2-yl)-[1,3]oxazinan-2-one], for which the EC50 came out at 68 nM and the Emax came to 51%.

Consider `CN1C(=O)N(c2ccc(C#Cc3ccccc3)cn2)[C@@H]2CCC[C@@H]21` (racemic) [Example 106, (3aRS, 6aSR)-1-methyl-3-(5-(phenylethynyl)pyridin-2-yl)hexahydrocyclopenta[d]imidazol-2(1H)-one], for which the EC50 came out at 30 nM and the Emax amounted to 42%.

For `CN1C(=O)N(c2ccc(C#Cc3ccccc3)cn2)CC1C(C)(C)C` (racemic) [Example 107, (RS)-4-tert-Butyl-3-methyl-1-(5-phenylethynyl-pyridin-2-yl)-imidazolidin-2-one], the EC50 worked out at 59 nM and the Emax is 106%.

For `CN1C(=O)N(c2ccc(C#Cc3cccc(F)c3)cn2)[C@@H]2CCC[C@@H]21` (racemic) [Example 109, (3aSR,6aRS)-1-[5-(3-Fluoro-phenylethynyl)-pyridin-2-yl]-3-methyl-hexahydro-cyclopenta-imidazol-2-one], the EC50 is 18 nM and the Emax amounted to 37%.
